Source: article PMC7689835 (Journal of Clinical Pharmacology, 2020)

Key:
[1] = cited from earlier work
[2] = Population PK model of quizartinib; assay type: in vivo, human
[3] = Observed plasma PK in clinical studies; assay type: in vivo, human; settings: for geometric mean ratio of AC886 AUC0-24,ss to quizartinib AUC0-24,ss: noncompartmental analysis
[4] = cited from earlier work; remark: listed apart in the source
[5] = Population PK model of AC886; assay type: in vivo, human
[6] = target: FLT3 kinase; settings: read-out: dissociation constant (Kd); cited from earlier work
[7] = before relative F1 for patients was incorporated into the model
[8] = interoccasion variability, occasion 1
[9] = interoccasion variability, occasion 2
[10] = interoccasion variability, occasion 3
[11] = interoccasion variability, occasion 4

CCc1nc(C(N)=O)c(Nc2ccc(N3CCC(N4CCN(C)CC4)CC3)c(OC)c2)nc1NC1CCOCC1 [gilteritinib]
increase in exposure with strong CYP3A inhibitor itraconazole [1]: approximately 2.2 fold
decrease in exposure with strong CYP3A4 inducer rifampin ([1]; versus gilteritinib alone): 30%

CO[C@@H]1[C@H](N(C)C(=O)c2ccccc2)C[C@H]2O[C@]1(C)n1c3ccccc3c3c4c(c5c6ccccc6n2c5c31)C(=O)NC4 [midostaurin]
decrease in exposure with CYP3A4 induction by rifampicin [1]: > 10 fold
increase in exposure with CYP3A inhibition by ketoconazole [1]: > 10 fold

CC(C)(C)c1cc(NC(=O)Nc2ccc(-c3cn4c(n3)sc3cc(OCCN5CCOCC5)ccc34)cc2)no1 [quizartinib]
increase in CL in patients with AML (initial characterization) [2, 7]: 75%
increase in Vc in patients with AML (initial characterization) [2, 7]: 36%
increase in Vp1 in patients with AML (initial characterization) [2, 7]: 102%
effect of eGFR on quizartinib CL ([2]; covariate test and sensitivity analysis): No significant effect
Magnitude of interindividual variability in ALAG1 ([2]; final estimate): 62.0% CV
Magnitude of interindividual variability in CL ([2]; final estimate): 55.1% CV
Magnitude of interindividual variability in D1 ([2]; final estimate): 69.3% CV
Magnitude of interindividual variability in F1 ([2]; final estimate): 34.8% CV
Magnitude of interindividual variability in Ka ([2]; final estimate): 38.5% CV
Magnitude of interindividual variability in Q1 ([2]; final estimate): 24.8% CV
Magnitude of interindividual variability in Vc ([2]; final estimate): 27.6% CV
Magnitude of interindividual variability in Vp1 ([2]; final estimate): 39.7% CV
decrease in CL with strong CYP3A inhibitor use ([2]; final model): 44.1%
increase in CL for patients with AML versus healthy volunteers ([2]; final model): 8.2%
increase in F1 with strong CYP3A inhibitor use ([2]; final model): 13.6%
reduction in bioavailability for patients with AML versus healthy volunteers ([2]; final model): 40.1%
Vd ([2]; human, plasma, oral): 194 L
IOV in CL on occasion 1 [2, 8]: 40.9% CV
IOV in F1 on occasion 1 [2, 8]: 22.6% CV
IOV in Vc on occasion 1 [2, 8]: 20.3% CV
IOV in CL on occasion 2 [2, 9]: 40.9% CV
IOV in Vc on occasion 2 [2, 9]: 20.3% CV
IOV in CL on occasion 3 [2, 10]: 40.9% CV
IOV in F1 on occasion 3 [2, 10]: 22.6% CV
IOV in Vc on occasion 3 [2, 10]: 20.3% CV
IOV in CL on occasion 4 [2, 11]: 40.9% CV
IOV in Vc on occasion 4 [2, 11]: 20.3% CV
ALAG1 (absorption lag time) ([2]; population mean): 0.205 h
CL (apparent clearance for parent) ([2]; population mean): 2.77 L/h
D1 (duration of zero-order input to depot compartment) ([2]; population mean): 0.708 h
F1 (fractional change in F1 for strong CYP3A inhibitors) ([2]; population mean): 0.136
F1 (fractional change in study 019 F1 for fed) ([2]; population mean): 0.0509
Q1 (exponent for BSA on Q1) ([2]; population mean): 0.970
Vc (exponent of [ALB/4.1] for Vc) ([2]; population mean): −0.725
Vc (exponent of [BSA/1.9] for Vc) ([2]; population mean): 1.46
Vp1 (exponent for BSA on Vp1) ([2]; population mean): 1.50
Vp1 (exponent for age on Vp1) ([2]; population mean): 0.453
Ka (first-order absorption constant for healthy participants) ([2]; population mean, healthy participants): 0.874 h⁻¹
Ka (first-order absorption constant for patients) ([2]; population mean, patients with AML): 1.68 h⁻¹
Ka (fractional change in Ka for fed status [019 only]) ([2]; population mean, study AC220-019, fed vs fasted): −0.512
decrease in ka under fed versus fasted conditions ([2]; study AC220-019): 51.2%
increase in F1 under fed versus fasted conditions ([2]; study AC220-019): 5.1%
Tmax ([3]; human, plasma, oral, observed Tmax, patients with AML): ~2 h
increase in quizartinib exposure by strong CYP3A inhibitors ([4]; drug-drug interaction study with ketoconazole or fluconazole): approximately 2 fold
effect of lansoprazole on bioavailability ([4]; phase 1 study): did not result in a meaningful change

CC(C)(CO)c1cc(NC(=O)Nc2ccc(-c3cn4c(n3)sc3cc(OCCN5CCOCC5)ccc34)cc2)no1 [AC886]
FMET (fraction of quizartinib converted to AC886) ([5]; FIXED, based on AUC ratio in phase 2 study): 0.500
effect of mild or moderate hepatic impairment on PK ([5]; based on baseline liver function values): no effect
Magnitude of interindividual variability in Vcm ([5]; final estimate): 117% CV
increase in CLm with concomitant strong CYP3A inhibitor use ([5]; final model): 10.6%
increase in Vcm with concomitant strong CYP3A inhibitor use ([5]; final model): 192%
IIV in CLm in healthy volunteers ([5]; healthy volunteers): 45.9% CV
IIV in CLm in patients ([5]; patients with AML): 64.1% CV
CLm (apparent clearance for metabolite) ([5]; population mean): 4.09 L/h
CLm (fractional change in CLm for race black) ([5]; population mean): 0.586
CLm (fractional change in CLm for strong CYP3A inhibitors) ([5]; population mean): 0.106
CLm (power of BSA in CLm) ([5]; population mean): 1.60
Vcm (fractional change in Vcm for strong CYP3A inhibitors) ([5]; population mean): 1.92
median accumulation ratio ([3]; patients from the QuANTUM-R study, multiple daily doses): 8.4
geometric mean ratio of AC886 AUC0-24,ss to quizartinib AUC0-24,ss ([3]; study 2689-CL-2004, 30-mg cohort): 0.544
geometric mean ratio of AC886 AUC0-24,ss to quizartinib AUC0-24,ss ([3]; study 2689-CL-2004, 60-mg cohort): 0.485
Kd [6]: 1.1 nM
